For assay [1], the system named is voltage-gated sodium channels. The assay is described as follows: QPatch48 HT electrophysiology of sodium channels in SHSY-5Y cells. It is filed as cell-based, human. The method, then: Using SHSY-5Y cells, electrophysiology was performed to measure ion channel activity using the QPatch48 HT (Sophion, Denmark). The samples tested were: • Negative control: 0.05% (v/v) Bovine Serum Albumin • Positive control: Tetradotoxin (TTX) at a concentration of 3 nM, 10 nM and 30 nM. • SEQ ID NO: 2—NH2 at a concentration of 0.005 mg/mL, 0.01 mg/ml and 0.05 mg/mL. • SEQ ID NO: 3—NH2 at a concentration of 0.005 mg/mL, 0.01 mg/ml and 0.05 mg/mL. • SEQ ID NO: 4—NH2 at a concentration of 0.005 mg/mL, 0.01 mg/ml and 0.05 mg/mL. • SEQ ID NO: 5—NH2 at a concentration of 0.005 mg/ml, 0.01 mg/mL and 0.05 mg/mL. • SEQ ID NO: 6—NH2 at a concentration of 0.005 mg/mL, 0.01 mg/ml and 0.05 mg/mL.
The percentage inhibition for each test dose application period was calculated as a reduction in mean cursor value (peak current) relative to the cursor value measured at the end of the vehicle control (pre-drug) and normalized to the maximum inhibition recorded with the supramaximal addition of TTX.
On the technique in general: The patch-clamp technique gives a direct electrical read-out from membranes.

Assay [2] deals with muscle contraction-related genes. Description: RT-qPCR expression of muscle contraction-related genes in myocytes. Format: cell-based, human. Conditions: 0.01 or 0.005 mg/mL, 24 h. The method, then: A stock solution of the peptide was prepared in milli-Q water at 25 mg/mL. This stock was further diluted in the corresponding supplemented medium to obtain the final working concentrations of 0.01 and 0.005 mg/mL. Untreated cells were used as negative control samples.
The relevant genes for which the expression was measured were: SCN1B (Sodium Voltage-Gated Channel Beta Subunit 1), SCN4A (Sodium Voltage-Gated Channel Alpha Subunit 4), SCN3A (Sodium Voltage-Gated Channel Alpha Subunit 3), CALM3 (Calmodulin 3) and RAPSN (Receptor Associated Protein of the Synapse). The primers used for each of the genes were commercially available TaqMan Gene Expression Assay probes. The experiment was performed in vitro in myocytes, two concentrations of the peptide were tested (0.01 mg/ml and 0.005 mg/mL) at 24 h.
Briefly, human skeletal muscle myoblasts were seeded in 12-well plates at a density of 1×10^5 cells/well and maintained at standard culture conditions (SKM-M medium supplemented with 1% Antibiotic/Antimycotic; 37° C., 95% Relative Humidity, 5% CO2) for 48-72 hours until the plated myoblasts reached 80-90% confluence. […]
The obtained data were analyzed using the ΔΔCt method, which provides the target gene expression values as fold changes in the treated sample compared with an untreated basal sample. […]
A general note: Quantitative PCR measures a nucleic acid by following its amplification.

In another assay the test system is ECM-related genes. Description: RT-qPCR expression of ECM-related genes in HDFa cells. It is filed as cell-based, human. The method, then:
A stock solution of the peptide was prepared in milli-Q water at 25 mg/mL. This stock was further diluted in the corresponding supplemented medium to obtain the final working concentrations of 0.05, 0.01 and 0.005 mg/mL. Untreated cells were used as negative control samples.
The relevant genes for which the expression was measured were: MMP1 (matrix metallopeptidase 1), HYAL1 (hyaluronidase 1), TIMP2 (TIMP metallopeptidase inhibitor 2), HAS1 (hyaluronan synthase 1), FBLN5 (fibulin 5), LOXL1 (lysyl oxidase like 1), COL4A1 (collagen type IV alpha 1 chain), COL3A1 (collagen type III alpha 1 chain) and COL7A1 (collagen type VII alpha 1 chain). The primers used for each of the genes were commercially available TaqMan Gene Expression Assay probes.
Briefly, HDFa cells were seeded in 12-well plates at a density of 1.5×10^5 cells/well and maintained at standard culture conditions (106 Medium supplemented with 1% LSGS; 37° C., 95% Relative Humidity, 5% CO2) for 24 hours. Then, cells were treated with the above-mentioned peptide at 0.005, 0.01 or 0.05 mg/mL for additional 6 or 24 hours.
Cells were finally lysed, and RNA extraction was performed using Qiagen RNeasy Mini kit following manufacturer's instructions. Purified RNAs were used to generate the corresponding cDNAs by reverse transcription which served as templates for amplification. RT-qPCR was performed with the panel of TaqMan assay probes specified above and 2x gene expression Master Mix using StepOne plus Real-Time PCR instrument. Amplification included 40 cycles of: 15 seconds at 95° C. (denaturation) and 1 minute at 60° C. (Annealing and extension).
The obtained data were analyzed using the ΔΔCt method, which provides the target gene expression values as fold changes in the treated sample compared with an untreated basal sample. Both samples were normalized with the relative expression of a housekeeping gene GAPDH (Glyceraldehyde 3-phosphate dehydrogenase).
The steps for analysis included: • 1. Calculate the average Ct for each condition • 2. Calculate the ΔCT test sample and the ΔCT calibrator sample • 3. Calculate the ΔΔCT: ΔΔCT=ΔCT test sample−ΔCT calibrator sample • 4. Obtain ratio by 2^−ΔΔCT

The test system of assay [3] is HDFa cells. The assay is described as follows: Procollagen I alpha 1 release from HDFa cells (ELISA). Format: cell-based, human. The settings on record: 48 h. Here is the method:
A stock solution of the peptide was prepared in water at 25 mg/mL. This stock was further diluted to obtain the final working concentrations of 0.01, 0.015 or 0.05 mg/mL in complete medium (Medium 106 supplemented with 2% LSGS). Untreated cells were used as basal condition.
For this study, HDFa cells were seeded in a 24-well plate at a density of 100,000 cells/well and maintained at standard culture conditions (Medium 106 supplemented with 2% LSGS; 37° C., 95% Relative Humidity, 5% CO2) for 24 hours.
After 24 hours, cells were treated for 48 h with the peptide of the present invention mentioned above (0.01, 0.015 and 0.05 mg/mL). After treatments, supernatants were collected and centrifuged in order to eliminate cell debris and were kept at −80° C. until they were used for procollagen I alpha 1 quantification with a human procollagen I alpha 1 DuoSet ELISA kit according to manufacturer instructions. Each condition was performed at least in triplicate (n=3) in three independent experiments (N=3).

The subject of assay [4] is HDFa cells. Description: Elastin synthesis in HDFa cells (Fastin Elastin Assay Kit). Format: cell-based, human. Conditions: 0.01 and 0.015 mg/ml, 48 hours, vs untreated samples. Here is the method:
A stock solution of the peptide was prepared in water at 25 mg/mL. This stock was further diluted to obtain the final working concentrations of 0.005, 0.01 or 0.015 mg/mL in complete medium (Medium 106 supplemented with 2% LSGS). Untreated cells were used as basal condition.
For this study, HDFa cells were seeded in a 12-well plate at a density of 120,000 cells/well and maintained at standard culture conditions (Medium 106+2% LSGS; 37° C., 95% Relative Humidity, 5% CO2) for 24 hours. Then, fibroblasts were treated for 48 hours with 0.005, 0.01 or 0.015 mg/mL of the peptide mentioned above. After treatment, cells were harvested for elastin quantification with the Fastin Elastin Assay Kit, according to manufacturer instructions. Each condition was performed at least in triplicate (n=3) in three independent experiments (N=3).

For assay [5], the system named is Human Fibroblast (SF-TY JCRB). The assay is described as follows: Hyaluronic acid synthesis in human skin fibroblasts (ELISA). Format: cell-based. The settings on record: 48 hours, first experimental session; for % HA content: negative control = 100. Here is the method:
In this case the objective of this experiment was to evaluate in vitro the capability of the peptides of the present invention to increase Hyaluronic Acid (HA) synthesis or production in human skin fibroblasts. This evaluation was carried out by determination of HA amount after cell treatment with the peptide (at the different concentrations noted below), for 48 hours.
The experimental groups were: • Untreated cell cultures (negative control). • Cells treated with the peptide of the present invention (at 0.005 mg/mL, 0.01 mg/ml or 0.05 mg/mL).
Treatment was performed for 48 hours. Treatments were performed in triplicate and in two different experimental sessions.
The experimental model used in this study were Human Fibroblast (SF-TY JCRB) cultivated in MEM with fetal bovine serum 10% and 1% antibiotics at 37° C., 5% CO2.
Cells were seeded in 96-well plate at 1×10^4 cells/well and maintained for 24 h at standard culture conditions (37° C., 95% Relative Humidity, 5% CO2) before the treatment was applied.
At the end of the experimental period, the determination of Hyaluronic synthesis was carried out by means of ELISA method. Commercial kits were used for this purpose. The test kit employed a two-site sandwich ELISA to quantitate HA in samples. Briefly, an antibody specific for HA was pre-coated onto a microplate; Standards and samples were pipetted into the wells and any HA present got bound by the immobilized antibody; after removing any unbound substances, a biotin-conjugated antibody specific for HA was added to the wells; after washing, Streptavidin conjugated Horseradish Peroxidase (HRP) was added to the wells; following a wash to remove any unbound avidin-enzyme reagent, a substrate solution was added to the wells and color developed in proportion to the amount of HA bound in the initial step. The color development was stopped, and the intensity of the color was measured. A calibration curve of known concentrations of standard hyaluronic acid was used to perform the determination of the tested samples.
The results are expressed as % of HA content in cell culture medium and cell lysate, which is calculated by stablishing the content of HA in the negative control as 100% and making the appropriate comparison with the rest of the samples.
For orientation: An ELISA detects its analyte on a solid surface through an enzyme-linked reagent.

The target of a further assay is T1, human NaV1.3 (Homo sapiens, UniProt Q9NY46).
T1 construct: expressed in transfected cells; host or cells: Chinese Hamster Ovary (CHO) cells, stably transfected
Description: QPatch48 HT electrophysiology of NaV1.3 stably transfected into CHO cells. The settings on record: 10 μM peptide, triplicate, vs separate negative control. Format: cell-based. The method, then: Using human NaV1.3 stably transfected into Chinese Hamster Ovary (CHO) cells, electrophysiology was performed to measure ion channel activity using the QPatch48 HT (Sophion, Denmark). Experiments were performed in triplicate and using a concentration of peptide of 10 μM. A separate negative control was performed for each of the peptides. As positive control Amitriptyline was used.

Where [6] appears, read: 24 h, 0.05 mg/ml of the peptide.

The source of these data is patent US20240415756A1, “PEPTIDES AND COMPOSITIONS FOR USE IN COSMETICS” (LIPOTRUE, S.L., priority 2022, published 2024).

Marks after values point to notes of the source that are not given here. Ends that are not written are not given here.

T1 sequence (Q9NY46 whole entry): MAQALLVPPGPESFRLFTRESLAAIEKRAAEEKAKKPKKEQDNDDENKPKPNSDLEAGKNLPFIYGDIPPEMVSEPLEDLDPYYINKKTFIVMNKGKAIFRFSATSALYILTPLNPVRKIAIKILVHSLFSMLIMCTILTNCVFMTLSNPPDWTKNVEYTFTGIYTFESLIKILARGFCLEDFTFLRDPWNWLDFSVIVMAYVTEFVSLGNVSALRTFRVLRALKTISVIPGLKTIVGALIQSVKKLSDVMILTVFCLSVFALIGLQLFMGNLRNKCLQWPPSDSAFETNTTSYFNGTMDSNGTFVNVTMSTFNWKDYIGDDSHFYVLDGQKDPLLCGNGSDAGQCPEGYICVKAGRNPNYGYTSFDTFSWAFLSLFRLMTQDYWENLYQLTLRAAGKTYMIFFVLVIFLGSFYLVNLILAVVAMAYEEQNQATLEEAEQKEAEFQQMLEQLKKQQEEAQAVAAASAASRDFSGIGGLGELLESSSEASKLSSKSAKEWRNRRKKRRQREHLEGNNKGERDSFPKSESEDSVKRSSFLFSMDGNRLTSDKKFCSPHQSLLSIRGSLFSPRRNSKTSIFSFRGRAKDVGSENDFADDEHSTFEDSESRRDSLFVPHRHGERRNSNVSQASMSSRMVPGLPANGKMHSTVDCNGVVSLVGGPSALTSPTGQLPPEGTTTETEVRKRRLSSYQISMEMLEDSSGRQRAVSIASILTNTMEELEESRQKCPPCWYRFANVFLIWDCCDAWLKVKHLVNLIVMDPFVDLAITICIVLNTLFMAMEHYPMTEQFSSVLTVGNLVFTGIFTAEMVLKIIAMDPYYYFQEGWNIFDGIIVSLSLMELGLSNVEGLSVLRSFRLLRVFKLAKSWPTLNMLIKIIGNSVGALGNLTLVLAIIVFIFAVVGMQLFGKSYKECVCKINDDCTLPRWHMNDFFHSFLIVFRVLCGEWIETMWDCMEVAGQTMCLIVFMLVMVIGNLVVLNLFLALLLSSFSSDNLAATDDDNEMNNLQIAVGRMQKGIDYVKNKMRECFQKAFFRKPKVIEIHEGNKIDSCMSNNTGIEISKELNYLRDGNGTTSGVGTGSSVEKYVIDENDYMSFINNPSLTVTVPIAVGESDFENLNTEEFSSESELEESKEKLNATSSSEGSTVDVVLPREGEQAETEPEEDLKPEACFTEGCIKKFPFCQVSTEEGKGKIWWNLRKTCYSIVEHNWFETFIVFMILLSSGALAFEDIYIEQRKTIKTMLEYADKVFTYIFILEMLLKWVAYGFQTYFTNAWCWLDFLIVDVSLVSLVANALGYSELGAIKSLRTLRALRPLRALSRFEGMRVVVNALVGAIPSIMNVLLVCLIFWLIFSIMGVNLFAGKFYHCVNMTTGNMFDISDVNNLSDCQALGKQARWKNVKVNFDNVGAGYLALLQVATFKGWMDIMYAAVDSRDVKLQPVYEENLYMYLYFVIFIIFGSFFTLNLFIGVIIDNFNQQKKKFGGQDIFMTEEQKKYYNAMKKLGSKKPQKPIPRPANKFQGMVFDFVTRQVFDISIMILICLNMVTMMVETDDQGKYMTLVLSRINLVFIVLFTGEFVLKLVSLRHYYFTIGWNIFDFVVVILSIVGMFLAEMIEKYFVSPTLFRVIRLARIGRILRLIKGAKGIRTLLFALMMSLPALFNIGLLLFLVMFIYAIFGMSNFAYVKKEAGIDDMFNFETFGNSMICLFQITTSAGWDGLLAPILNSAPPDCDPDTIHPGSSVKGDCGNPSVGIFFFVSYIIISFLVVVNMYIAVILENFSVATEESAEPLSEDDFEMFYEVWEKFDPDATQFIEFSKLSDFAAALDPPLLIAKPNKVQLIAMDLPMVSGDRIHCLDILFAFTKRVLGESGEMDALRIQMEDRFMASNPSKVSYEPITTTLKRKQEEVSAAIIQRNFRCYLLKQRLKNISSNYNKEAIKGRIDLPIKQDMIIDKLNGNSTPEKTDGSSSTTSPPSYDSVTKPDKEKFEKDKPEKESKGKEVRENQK

On to `NC1=N[C@H](O)[C@H]2[C@H]3O[C@]4(O)O[C@@H]([C@@H](O)[C@@]2(N1)[C@@H]4O)[C@]3(O)CO` [TTX, tetrodotoxin, reference compound], for which the “blocking effect on sodium channels” value in assay [1] is recorded as “full blocking effect”.

For the compound “Ile-Glu-Pro-Tyr-Tyr-Val-NH2 (IEPYYV-NH2) [SEQ ID NO: 5—NH2]”, the “ranking of sodium channel inhibition among tested peptides at the lower concentration” value in assay [1] (0.005 mg/mL, SHSY-5Y cells) was “performed the best”.

In the case of “KDRVY-NH2 [SEQ ID NO: 4—NH2, Lys-Asp-Arg-Val-Tyr-NH2]”, the “expression of sodium channels and muscle contraction-related genes (SCN1B, SCN4A, SCN3A, CALM3, RAPSN)” value in assay [2] is given as “downregulate”. Besides, the HYAL1 gene expression result in the assay with ECM-related genes (6 h, 0.005 mg/ml of the peptide) is given as “downregulation”. Also, the HAS1 gene expression result in the assay with ECM-related genes (6 h, 0.05 mg/ml of the peptide) is “upregulation”. In the assay with ECM-related genes (24 h, 0.01 mg/m of the peptide), the COL3A1 gene expression result is on record as “upregulation”, the COL4A1 gene expression result is given as “upregulation” and the MMP1 gene expression result is listed as “downregulation”. Besides, in the assay with ECM-related genes (setting [6]), the COL7A1 gene expression result is “upregulation”, the FBLN5 gene expression result was “upregulation”, the LOXL1 gene expression entry is listed as “upregulation” and the TIMP2 gene expression result was “upregulation”. For the same compound, in the assay on HDFa cells [3] (HDFa, 0.05 mg/mL (highest tested concentration)), the “increase of procollagen I alpha 1 protein release” value was 53%. In addition, the “procollagen I alpha 1 protein release” value with HDFa cells [3] (HDFa, 0.01, 0.015 and 0.05 mg/mL, vs untreated cells) is given as “increased at all tested concentrations, in a dose-dependent manner”. Further, the elastin levels entry in the assay with HDFa cells [4] was “increase of elastin levels”. In addition, the “ranking of sodium channel inhibition among tested peptides at the two higher concentrations” value in assay [1] (0.01 and 0.05 mg/mL, SHSY-5Y cells) is “best results”. Further, in assay [5] (0.005 mg/mL), the “% Variation with regard to negative control” value (“% Variation with regard” below) is 7.57** % and the “% HA content” value is recorded as 107.57** %. In assay [5] (0.01 mg/mL), the “% Variation with regard” value is 21.75*** % and the “% HA content” value is 121.75*** %. In assay [5] (0.05 mg/mL), the “% Variation with regard” value was 39.21*** % and the “% HA content” value is recorded as 139.21*** %.

In the case of “Lys-Arg-Arg-Tyr-Tyr-Cys-NH2 (KRRYYC-NH2) [SEQ ID NO: 2—NH2]”, in the assay with human NaV1.3, the “inhibition of NaV1.3 inward currents” value is “increased and statistically significant effect”.

In the case of “Lys-His-Arg-Ser-Tyr-NH2 (KHRSY-NH2) [SEQ ID NO: 3—NH2]”, the “inhibition of NaV1.3 inward currents” value in the assay with human NaV1.3 was “increased and statistically significant effect”.
